The values that follow come from patent publication US20200031820A1, “3-CARBOXYLIC ACID PYRROLES AS NRF2 REGULATORS” (GLSXOSMITHKLINE INTELLECTUAL PROPERTY DEVELOPMENT LIMITED, priority 2016, published 2020).

In experiment [1] the test system is NQO1 specific enzyme activity in BEAS-2B cells (marker for NRF2 activation). The experiment can be described thus: Beas2B NQO1 MTT Assay. Type of experiment: cell-based. Conditions: Homo sapiens, NQO1 specific activity induction, 48 hours with compound. An excerpt:
NAD(P)H:quinone oxidoreductase 1 (NQO1), also called DT diaphorase, is a homodimeric FAD-containing enzyme that catalyses obligatory NAD(P)H-dependent two-electron reductions of quinones and protects cells against the toxic and neoplastic effects of free radicals and reactive oxygen species arising from one-electron reductions. The transcription of NQO1 is finely regulated by NRF2, and thus NQO1 activity is a good marker for NRF2 activation. On day one, frozen BEAS-2B cells (ATCC) were thawed in a water bath, counted, and re-suspended at a concentration of 250,000 cells/mL. Fifty microliters of cells were plated in 384 well black clear-bottomed plates. Plates were incubated at 37° C., 5% CO2 overnight. On day two, plates were centrifuged and 50 nL of compound or controls were added to the cells. Plates were then incubated at 37° C., 5% CO2 for 48 hours. On day four, medium was aspirated from the plate and crude cell lysates were made by adding 13 uL of 1× Cell Signaling Technologies lysis buffer with 1 Complete, Mini, EDTA-free Protease Inhibitor Tablet (Roche) for each 10 mL of lysis buffer. After lysis plates were incubated for 20 minutes at room temperature. Two microliters of lysate were removed for use in Cell Titer Glo assay (Promega) and MTT cocktail was prepared (Prochaska et. al. 1998) for measurement of NQO1 activity. Fifty microliters of MTT cocktail was added to each well, plate was centrifuged, and analysed on an Envision plate reader (Perkin Elmer) using Absorbance 570 nm label for 30 minutes. Product formation was measured kinetically and the pEC50 of NQO1 specific activity induction was calculated by plotting the change in absorbance (Delta OD/min) versus the log of compound concentration followed by 3-parameter fitting.
EC50s <1 nM (+++++), EC50s 10 nM-1 nM (++++), EC50s 10-100 nM (+++), EC50s 100 nM-1 μM (++), EC50s 1-10 μM (+), EC50s >10 μM (−), or were not determined (ND).

The target in experiment [2] is T1, Keap1 (321-609) Kelch domain / TAMRA-labeled 16mer NRF2 peptide (ETGE motif) (Homo sapiens, UniProt Q14145).
T1 construct: the Kelch domain (321-609) of Keap1 is used
The experiment can be described thus: NRF2-Keap1 FP Assay. The settings on record: 20 nM Keap1 (321-609), 8 nM Tamra labeled peptide. Type of experiment: binding. An excerpt:
One model for the NRF2-Keap1 interaction is through two binding sites in the Neh2 domain on NRF2. The two sites are referred to as the DLG binding motif (latch domain, uM affinity) and the ETGE binding motif (hinge domain, nM affinity). The Keap1 protein consists of an N-terminal region (NTR), a broad complex, tramtrack, and brick a'brac domain (BTB), an intervening region (IVR), a double glycine repeat domain (DGR or Kelch), and a C-terminal region. The DLG and ETGE motifs of NRF2's Neh2 domain bind to the Kelch domain of Keap1 at different affinities. In the Keap1 Kelch fluorescence polarization (FP) assay, a TAMRA-labeled 16mer peptide (AFFAQLQLDEETGEFL) containing the ETGE motif of NRF2 and the Kelch domain (321-609) of Keap1 is used. The assay determines if a compound interferes with the binding between Keap1 […] and the TAMRA-labeled peptide. Binding of TAMRA-labeled NRF2 peptide to Keap1 (321-609) results in a high FP signal. If a compound interferes with the binding between the peptide and the protein, it will cause the assay signal to decrease. Thus, assay signal is inversely proportional to binding inhibition.
100 nl of 100× compound dose response curves (serial 3-fold dilutions) in DMSO were stamped using an Echo liquid handling system (Labcyte) into 384-well low volume black assay plates (Greiner, #784076), with DMSO in columns 6 and 18. The top concentration of compound was located in columns 1 and 13. Keap1 (321-609) was diluted to 40 nM (2×) in 1× assay buffer (50 mM Tris, pH 8.0, 100 mM NaCl, 5 mM MgCl2, 1 mM DTT, 2 mM CHAPS, and 0.005% BSA) and 5 ul was added using a Multidrop Combi (Thermo Electron Corporation) equipped with a metal tip dispenser to all wells of the compound plate, except column 18. Column 18 received only 5 ul of assay buffer. Immediately, 5 uL of 16 nM (2×) of Tamra labeled peptide (AFFAQLQLDEETGEFL, 21st Century Biochemicals) was added to all wells of the plate. The plates were spun at 500 rpm for 1 min, incubated for 1 hr at room temperature, and read on an Analyst GT (Molecular Devices) equipped with excitation (530/25 nm) and emission (580/10 nm) filters designed for Tamra probes. A 561 nm dichroic mirror was also used in the Analyst. The final assay concentrations of Keap1 (321-609) and Tamra labeled peptide were 20 nM and 8 nM, respectively. Fluorescence measurements, represented as mP, were used in the transformation of the data. Compound activity was calculated based on percent inhibition, normalized against controls in the assay (Control 1 contains the Tamra peptide and Keap1 (321-609) together (0% response) and control 2 contains the Tamra peptide alone (100% response)). Data analysis was handled using the software package Abase XE (Surrey, United Kingdom. The % inhibition values were calculated by the equation:
100−(100*((compound response−average control 2)/(average control 1−average control2))). For calculation of pIC50s, Abase XE uses a four parameter equation.
IC50s<1 nM (+++++), IC50s 1 nM-10 nM (++++), IC50s 10-100 nM (+++), IC50s 100 nM-1 μM (++), IC50s 1-10 μM (+), IC50s >10 μM (−), or were not determined (ND).

Where only a bound is given, the exact number is not on record here.

As usually defined, the EC50 is the concentration that produces a half-maximal response.

T1 sequence (Q14145 321-609): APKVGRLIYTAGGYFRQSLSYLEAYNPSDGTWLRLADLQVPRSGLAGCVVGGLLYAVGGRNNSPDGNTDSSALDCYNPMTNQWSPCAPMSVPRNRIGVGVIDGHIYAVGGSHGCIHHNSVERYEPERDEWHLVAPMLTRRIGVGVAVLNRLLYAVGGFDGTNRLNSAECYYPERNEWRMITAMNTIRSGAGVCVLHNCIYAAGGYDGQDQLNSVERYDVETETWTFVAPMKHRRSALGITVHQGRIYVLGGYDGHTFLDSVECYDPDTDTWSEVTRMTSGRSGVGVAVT

`C[C@H]1Cc2ccc(Br)cc2S(=O)(=O)N(Cc2cccc(-n3ccc(C(=O)O)c3[C@@H]3C[C@H]3c3cn(C)nn3)c2)C1` [Example 8, 1-(3-(((S)-8-bromo-4-methyl-1,1-dioxido-4,5-dihydrobenzo[f][1,2]thiazepin-2(3H)-yl)methyl)phenyl)-2-((1R,2R)-2-(1-methyl-1H-1,2,3-triazol-4-yl)cyclopropyl)-1H-pyrrole-3-carboxylic acid]: the EC50 in experiment [1] lay within 1 to 10 nM; in experiment [2], 10 to 100 nM.

On to `CC[C@H]1Cc2ccc(Br)cc2S(=O)(=O)N(Cc2cccc(-n3ccc(C(=O)O)c3[C@@H]3C[C@H]3c3cn(C)nn3)c2)C1` [Example 9, 1-(3-(((S)-8-bromo-4-ethyl-1,1-dioxido-4,5-dihydrobenzo[f][1,2]thiazepin-2(3H)-yl)methyl)phenyl)-2-((1R,2R)-2-(1-methyl-1H-1,2,3-triazol-4-yl)cyclopropyl)-1H-pyrrole-3-carboxylic acid], for which the EC50 in experiment [1] was less than 1 nM; in experiment [2], 10 to 100 nM.

For `C[C@H](Oc1cccc(-c2cccc(-n3ccc(C(=O)O)c3[C@H]3C[C@@H]3c3cn(C)nn3)c2)c1)C1CCCCC1` [Example 17, 1-(3′-((S)-1-cyclohexylethoxy)-[1,1′-biphenyl]-3-yl)-2-((1S,2S)-2-(1-methyl-1H-1,2,3-triazol-4-yl)cyclopropyl)-1H-pyrrole-3-carboxylic acid], the EC50 in experiment [1] and in experiment [2] was 10 to 100 nM each time.

Take `CCC[C@@H]1CCCCN1C(=O)c1cccc(-c2cccc(-n3ccc(C(=O)O)c3[C@@H]3C[C@H]3c3cn(C)nn3)c2)c1Br` [Example 22]: the EC50 in experiment [1] and in experiment [2] was 10 to 100 nM throughout.

On to `CCC[C@@H]1CCCCN1C(=O)c1cc(F)cc(-c2cccc(-n3ccc(C(=O)O)c3[C@@H]3C[C@H]3c3cn(C)nn3)c2)c1` [Example 23], for which the EC50 in experiment [1] and in experiment [2] was 10 to 100 nM in each case.

`CCC[C@@H]1CCCCN1C(=O)c1cccc(-c2cccc(-n3ccc(C(=O)O)c3[C@@H]3C[C@H]3c3cn(C)nn3)c2)c1C(F)(F)F` [Example 24]: the EC50 in experiment [1] lay within 1000 to 10000 nM; in experiment [2], 100 to 1000 nM.
